Measured values reported in US20220135571A1, “THERAPEUTIC EGFR INHIBITORS” (Hoffmann-La Roche Inc., priority 2019, published 2022).
Structures can show the parent of a compound that is named as a salt.

Key:
[1] = biological target: T1, EGFR TMLR (T790M/L858R), H1975 cell line (Homo sapiens, UniProt P00533, L858R/T790M); experiment: HTRF Phospho EGFR TMLR Assay (Cellular); assay type: cell-based; settings: H1975 cells, 16 hours compound incubation
T1 construct: H1975 cell line (CRL-5908; Lot BA70803) was obtained from American Type Culture Collection; host or cells: H1975
Protocol: HTRF Phospho EGFR TMLR Assay (Cellular)
H1975 cell line (CRL-5908; Lot BA70803) was obtained from American Type Culture Collection (Manassas, Va., USA). Cells were maintained at 37° C., 5% CO2 in complete Media RPMI 1640 without phenol red containing 0.3 mg/ml glutamine, 100 IU/ml penicillin, and […] streptomycin (Gibco, 15140-122) supplemented with 10% fetal bovine serum (FBS, Gibco, 10091-148). Compounds were diluted into starving medium RPMI 1640 Media (Gibco, 11835-030) without phenol red containing 0.3 mg/ml glutamine, 100 IU/ml penicillin, and […] streptomycin (Gibco).
Cells were cultured for 24 h in a 384-well plate (Greiner Bio-One, Nr. 784-080; 5000 cells/well) using 8 μl of complete medium/well. Then 4 µl/well of the 3× compound solution, containing a factor 3 dilution series of the compound or DMSO in starving medium, were added to the cells (final DMSO 0.33%). After 16 hours at 37° C., 5% CO2, 95% rel. humidity cells were lysed by adding to the compound mix 4 µl/well of the supplemented lysis buffer (Cis-bio, Phospho-EGFR HTRF kit, 64EG1PEH), followed by incubation for 30 min at room temperature with shaking (400 rpm). Then 4 μl of a mixture of anti-Phospho-EGFR Cryptate and of anti-Phospho-EGFR-d2 antibody solutions prepared in the detection buffer was added. The plates were then incubated for 4 h at room temperature before reading the fluorescence emission at 620 and 665 nm using an Envision reader (Perkin Elmer).

[2] = biological target: T2, EGFR TMLRCS (T790M/L858R/C797S), BaF3-TMLRCS cell line (Homo sapiens, UniProt P00533, C797S/L858R/T790M); experiment: HTRF Phospho EGFR TMLRCS Assay (Cellular); assay type: cell-based; settings: BaF3-TMLRCS cells, 4 hours compound incubation
T2 construct: host or cells: BaF3
Protocol: HTRF Phospho EGFR TMLRCS Assay (Cellular)
BaF3-TMLRCS cell line were obtained from Crownbio (San Diego, Calif., USA). Cells were maintained at 37° C., 5% CO2 in RPMI ATCC (Gibco 31870)+2 mM Glutamine+0.5 μg/ml Puromycin supplemented with 10% fetal bovine serum (FBS) (Gibco).
Cells are transferred as above to Greiner Bio-One, Nr. 784-08 micro-titerplate at 20000 cells/well in 12.5 μl of growth medium/well after the plates had been pre-filled with 12.5 nl of DMSO solutions of the to be tested compounds (in dose response) or DMSO only. After spinning the plates at 300×g for 30 seconds the cells were incubated for 4 hours at 37 C, 5% CO2, 95% humidity. The cells were lysed by adding to the compound mix 4 µl/well of the supplemented lysis buffer (Cis-bio, Phospho-EGFR HTRF kit, 64EG1PEH), followed by incubation for 30 min at room temperature with shaking (400 rpm). The plates were then frozen and stored overnight at −80 C. On the next day and after thawing the plates, 4 μl of a mixture of anti-Phospho-EGFR Cryptate and of anti-Phospho-EGFR-d2 antibody solutions prepared in the supplied detection buffer was added to each well. The lidded plates were then incubated for 4 h at room temperature before reading the fluorescence emission at 616 and 665 nm using an Envision reader (Perkin Elmer). Data was analyzed in similar fashion as above using the normalized ratio of the 665 to 616 signals multiplied by 10000.

T1 sequence (P00533 25-1210 T790M/L858R): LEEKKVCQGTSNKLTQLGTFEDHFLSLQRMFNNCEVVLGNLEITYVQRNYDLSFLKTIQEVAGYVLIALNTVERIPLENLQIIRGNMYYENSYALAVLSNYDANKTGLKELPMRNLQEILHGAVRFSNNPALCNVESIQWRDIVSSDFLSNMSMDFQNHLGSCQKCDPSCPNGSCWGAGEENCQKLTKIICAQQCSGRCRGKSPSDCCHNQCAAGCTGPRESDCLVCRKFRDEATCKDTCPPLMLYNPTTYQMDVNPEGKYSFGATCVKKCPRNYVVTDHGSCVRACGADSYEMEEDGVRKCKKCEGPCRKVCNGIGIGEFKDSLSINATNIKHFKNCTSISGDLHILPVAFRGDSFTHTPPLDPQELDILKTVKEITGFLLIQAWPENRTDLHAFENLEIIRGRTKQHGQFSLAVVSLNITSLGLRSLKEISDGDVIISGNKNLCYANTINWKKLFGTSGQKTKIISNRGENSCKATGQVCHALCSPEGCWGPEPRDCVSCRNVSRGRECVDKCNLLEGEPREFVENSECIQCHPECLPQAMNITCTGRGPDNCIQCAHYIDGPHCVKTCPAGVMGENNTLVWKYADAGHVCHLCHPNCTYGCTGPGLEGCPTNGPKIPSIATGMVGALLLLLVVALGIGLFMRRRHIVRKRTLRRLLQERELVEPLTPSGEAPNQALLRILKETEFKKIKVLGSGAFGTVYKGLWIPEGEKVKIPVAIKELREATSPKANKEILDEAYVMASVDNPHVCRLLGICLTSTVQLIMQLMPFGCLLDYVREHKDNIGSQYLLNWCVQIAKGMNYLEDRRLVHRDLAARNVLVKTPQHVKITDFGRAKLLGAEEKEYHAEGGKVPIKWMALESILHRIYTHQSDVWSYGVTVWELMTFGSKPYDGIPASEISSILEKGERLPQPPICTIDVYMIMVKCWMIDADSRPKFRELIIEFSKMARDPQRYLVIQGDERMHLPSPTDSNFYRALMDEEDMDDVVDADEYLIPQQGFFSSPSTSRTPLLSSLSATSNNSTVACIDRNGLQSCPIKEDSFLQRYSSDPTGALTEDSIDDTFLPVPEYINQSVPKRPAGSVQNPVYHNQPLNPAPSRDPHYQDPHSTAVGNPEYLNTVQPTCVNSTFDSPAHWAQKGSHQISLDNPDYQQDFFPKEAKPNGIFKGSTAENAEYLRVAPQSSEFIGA
T2 sequence (P00533 25-1210 T790M/C797S/L858R): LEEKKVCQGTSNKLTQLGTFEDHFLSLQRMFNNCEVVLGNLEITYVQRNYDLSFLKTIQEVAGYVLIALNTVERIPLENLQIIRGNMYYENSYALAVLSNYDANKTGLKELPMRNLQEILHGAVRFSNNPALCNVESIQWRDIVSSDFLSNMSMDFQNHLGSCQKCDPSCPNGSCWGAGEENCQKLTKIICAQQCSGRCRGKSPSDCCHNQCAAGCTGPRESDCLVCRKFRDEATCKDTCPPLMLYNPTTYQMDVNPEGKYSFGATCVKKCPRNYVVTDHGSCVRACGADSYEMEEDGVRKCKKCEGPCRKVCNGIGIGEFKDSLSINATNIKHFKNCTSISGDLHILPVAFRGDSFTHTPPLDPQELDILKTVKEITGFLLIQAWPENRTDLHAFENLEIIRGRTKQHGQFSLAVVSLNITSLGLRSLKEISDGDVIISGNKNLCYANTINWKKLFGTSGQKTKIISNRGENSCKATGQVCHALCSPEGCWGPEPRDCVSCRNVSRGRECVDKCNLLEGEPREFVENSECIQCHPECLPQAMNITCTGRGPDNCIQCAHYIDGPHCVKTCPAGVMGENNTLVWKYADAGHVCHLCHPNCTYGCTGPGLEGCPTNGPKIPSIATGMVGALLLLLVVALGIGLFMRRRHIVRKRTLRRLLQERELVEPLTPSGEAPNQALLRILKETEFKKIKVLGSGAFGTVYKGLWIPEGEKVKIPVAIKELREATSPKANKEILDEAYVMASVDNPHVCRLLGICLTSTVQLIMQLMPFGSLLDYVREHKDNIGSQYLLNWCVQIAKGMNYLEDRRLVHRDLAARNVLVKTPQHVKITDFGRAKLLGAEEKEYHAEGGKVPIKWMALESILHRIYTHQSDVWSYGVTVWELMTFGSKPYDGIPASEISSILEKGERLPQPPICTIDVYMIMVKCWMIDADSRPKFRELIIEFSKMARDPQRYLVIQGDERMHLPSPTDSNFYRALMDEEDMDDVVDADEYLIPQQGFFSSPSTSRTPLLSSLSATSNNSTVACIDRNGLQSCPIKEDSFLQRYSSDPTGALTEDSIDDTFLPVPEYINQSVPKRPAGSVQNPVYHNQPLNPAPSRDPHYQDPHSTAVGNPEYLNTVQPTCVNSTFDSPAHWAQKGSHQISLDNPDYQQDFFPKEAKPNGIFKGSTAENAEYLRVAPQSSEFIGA

SMILES | IC50 [1] | IC50 [2]
COc1c(-c2ccc3c(c2)CCC(=O)N3C)cc(Cl)c2cn(C(C(=O)Nc3nccs3)c3ncn4c3C[C@@H](F)C4)nc12 (mixture of isomers) [Example 20, 2-[4-Chloro-7-methoxy-6-(1-methyl-2-oxo-3,4-dihydroquinolin-6-yl)indazol-2-yl]-2-[rac-(6R)-6-fluoro-6,7-dihydro-5H-pyrrolo[1,2-c]imidazol-1-yl]-N-(1,3-thiazol-2-yl)acetamide] | 1 nM | –
CCN1CCN(c2ccc(-c3cc(Cl)c4cn(C(C(=O)Nc5nccs5)c5ncn6c5C[C@@H](F)C6)nc4c3OC)cc2)CC1 (mixture of isomers) [Example 21, 2-[4-Chloro-6-[4-(4-ethylpiperazin-1-yl)phenyl]-7-methoxyindazol-2-yl]-2-[rac-(6R)-6-fluoro-6,7-dihydro-5H-pyrrolo[1,2-c]imidazol-1-yl]-N-(1,3-thiazol-2-yl)acetamide] | 3 nM | –
COc1c(-c2ccc(C3CCN(C4CC4)CC3)cc2)cc(Cl)c2cn(C(C(=O)Nc3nccs3)c3ncn4c3C[C@@H](F)C4)nc12 (mixture of isomers) [Example 22, 2-[4-Chloro-6-[4-(1-cyclopropylpiperidin-4-yl)phenyl]-7-methoxyindazol-2-yl]-2-[rac-(6R)-6-fluoro-6,7-dihydro-5H-pyrrolo[1,2-c]imidazol-1-yl]-N-(1,3-thiazol-2-yl)acetamide] | 5 nM | –
O=C(Nc1nccs1)C(c1ncn2c1CCC2)n1cc2c(Cl)cc(-c3ccc(N4CCNCC4)cc3)cc2n1 (stereo not drawn) [Example 1, 2-(4-Chloro-6-(4-(piperazin-1-yl)phenyl)-2H-indazol-2-yl)-2-(6,7-dihydro-5H-pyrrolo[1,2-c]imidazol-1-yl)-N-(thiazol-2-yl)acetamide hydrochloride] | 3 nM | 7 nM
O=C(Nc1nccs1)C(c1ncn2c1CCC2)n1cc2c(Cl)cc(-c3ccc(N4CCNCC4)c(Cl)c3)cc2n1 (stereo not drawn) [Example 3, 2-(4-Chloro-6-(3-chloro-4-(piperazin-1-yl)phenyl)-2H-indazol-2-yl)-2-(6,7-dihydro-5H-pyrrolo[1,2-c]imidazol-1-yl)-N-(thiazol-2-yl)acetamide hydrochloride] | 9 nM | –
CCN1CCN(c2ccc(-c3cc(Cl)c4cn(C(C(=O)Nc5nccs5)c5ncn6c5CCC6)nc4c3)cc2Cl)CC1 (stereo not drawn) [Example 4, 2-(4-Chloro-6-(3-chloro-4-(4-ethylpiperazin-1-yl)phenyl)-2H-indazol-2-yl)-2-(6,7-dihydro-5H-pyrrolo[1,2-c]imidazol-1-yl)-N-(thiazol-2-yl)acetamide] | 11 nM | 14 nM
O=C(Nc1nccs1)C(c1ncn2c1C[C@@H](F)C2)n1cc2c(F)cc(-c3ccc(N4CCNCC4)c(Cl)c3)cc2n1 (stereo partly drawn) [Example 6, 2-(6-(3-Chloro-4-(piperazin-1-yl)phenyl)-4-fluoro-2H-indazol-2-yl)-2-((R)-6-fluoro-6,7-dihydro-5H-pyrrolo[1,2-c]imidazol-1-yl)-N-(thiazol-2-yl)acetamide hydrochloride] | 3 nM | –
CC(=O)N1CCN(c2ccc(-c3cc(F)c4cn(C(C(=O)Nc5nccs5)c5ncn6c5C[C@@H](F)C6)nc4c3)cc2Cl)CC1 (stereo partly drawn) [Example 7, 2-(6-(4-(4-Acetylpiperazin-1-yl)-3-chlorophenyl)-4-fluoro-2H-indazol-2-yl)-2-((R)-6-fluoro-6,7-dihydro-5H-pyrrolo[1,2-c]imidazol-1-yl)-N-(thiazol-2-yl)acetamide] | 1 nM | –
CCN1CCN(c2ccc(-c3cc(F)c4cn(C(C(=O)Nc5nccs5)c5ncn6c5C[C@@H](F)C6)nc4c3)cc2Cl)CC1 (stereo partly drawn) [Example 8, 2-(6-(3-Chloro-4-(4-ethylpiperazin-1-yl)phenyl)-4-fluoro-2H-indazol-2-yl)-2-((R)-6-fluoro-6,7-dihydro-5H-pyrrolo[1,2-c]imidazol-1-yl)-N-(thiazol-2-yl)acetamide] | 5 nM | –
CCN1CCN(c2ccc(-c3cc(Cl)c4cn(C(C(=O)Nc5nccs5)c5ncn6c5CCC6)nc4c3Cl)cc2)CC1 (stereo not drawn) [Example 13, 2-(4,7-Dichloro-6-(4-(4-ethylpiperazin-1-yl)phenyl)-2H-indazol-2-yl)-2-(6,7-dihydro-5H-pyrrolo[1,2-c]imidazol-1-yl)-N-(thiazol-2-yl)acetamide] | 1 nM | 11 nM
CCN1CCN(c2ccc(-c3cc(Cl)c4cn(C(C(=O)Nc5nccs5)c5ncn6c5CCC6)nc4c3F)cc2)CC1 (stereo not drawn) [Example 16, 2-(4-Chloro-6-(4-(4-ethylpiperazin-1-yl)phenyl)-7-fluoro-2H-indazol-2-yl)-2-(6,7-dihydro-5H-pyrrolo[1,2-c]imidazol-1-yl)-N-(thiazol-2-yl)acetamide] | 2 nM | –

More lines, in order of falling IC50 [1], values ahead:

IC50 [1] | IC50 [2] | SMILES
2 nM | – | O=C(Nc1nccs1)C(c1ncn2c1CCC2)n1cc2c(Cl)cc(-c3ccc(N4CCNCC4)cc3)c(Cl)c2n1 (stereo not drawn) [Example 9, 2-(4,7-Dichloro-6-(4-(piperazin-1-yl)phenyl)-2H-indazol-2-yl)-2-(6,7-dihydro-5H-pyrrolo[1,2-c]imidazol-1-yl)-N-(thiazol-2-yl)acetamide hydrochloride]
2 nM | – | O=C(Nc1nccs1)C(c1ncn2c1CCC2)n1cc2c(Cl)cc(-c3ccc(N4CCNCC4)cc3)c(F)c2n1 (stereo not drawn) [Example 15, 2-(4-Chloro-7-fluoro-6-(4-(piperazin-1-yl)phenyl)-2H-indazol-2-yl)-2-(6,7-dihydro-5H-pyrrolo[1,2-c]imidazol-1-yl)-N-(thiazol-2-yl)acetamide hydrochloride]
1 nM | – | CC(=O)N1CCN(c2ccc(-c3cc(Cl)c4cn(C(C(=O)Nc5nccs5)c5ncn6c5CCC6)nc4c3Cl)cc2)CC1 (stereo not drawn) [Example 12, 2-(6-(4-(4-Acetylpiperazin-1-yl)phenyl)-4,7-dichloro-2H-indazol-2-yl)-2-(6,7-dihydro-5H-pyrrolo[1,2-c]imidazol-1-yl)-N-(thiazol-2-yl)acetamide]
1 nM | – | CN1C(=O)CCc2cc(-c3cc(Cl)c4cn(C(C(=O)Nc5nccs5)c5ncn6c5CCC6)nc4c3F)ccc21 (stereo not drawn) [Example 18, 2-(4-Chloro-7-fluoro-6-(1-methyl-2-oxo-1,2,3,4-tetrahydroquinolin-6-yl)-2H-indazol-2-yl)-2-(6,7-dihydro-5H-pyrrolo[1,2-c]imidazol-1-yl)-N-(thiazol-2-yl)acetamide]
1 nM | – | CC(C)n1ccc(-c2cc(Cl)c3cn(C(C(=O)Nc4nccs4)c4ncn5c4CCC5)nc3c2F)cc1=O (stereo not drawn) [Example 23, 2-(4-Chloro-7-fluoro-6-(1-isopropyl-2-oxo-1,2-dihydropyridin-4-yl)-2H-indazol-2-yl)-2-(6,7-dihydro-5H-pyrrolo[1,2-c]imidazol-1-yl)-N-(thiazol-2-yl)acetamide]
0.4 nM | 5 nM | CC(=O)N1CCN(c2ccc(-c3cc(Cl)c4cn(C(C(=O)Nc5nccs5)c5ncn6c5CCC6)nc4c3)cc2)CC1 (stereo not drawn) [Example 2, 2-(6-(4-(4-Acetylpiperazin-1-yl)phenyl)-4-chloro-2H-indazol-2-yl)-2-(6,7-dihydro-5H-pyrrolo[1,2-c]imidazol-1-yl)-N-(thiazol-2-yl)acetamide]
